# Data as given in PubChem BioAssay (NCI).
#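 GI50 marks 50% less growth. At the TGI there is no net growth.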
# Key:
# Assay in all cases: growth of human tumour cells (NCI), 384-well format
# SW-620 colon = tested on: SW-620 colon
# UO-31 renal = tested on: UO-31 renal
# HOP-62 NSCLC = tested on: HOP-62 NSCLC
# SF-268 CNS = tested on: SF-268 CNS
# UACC-62 melanoma = tested on: UACC-62 melanoma
# M14 melanoma = tested on: M14 melanoma
# RXF 393 renal = tested on: RXF 393 renal
# MDA-MB-231 breast = tested on: MDA-MB-231 breast
# UACC-257 melanoma = tested on: UACC-257 melanoma
# U251 glioblastoma = tested on: U251 glioblastoma
# SK-MEL-5 melanoma = tested on: SK-MEL-5 melanoma
# T-47D breast = tested on: T-47D breast
# KM12 colon = tested on: KM12 colon
smiles,measurement,setting,value
C=CC(=O)N1CCN(CCCn2c(=O)c(-c3c(Cl)c(OC)cc(OC)c3Cl)cc3cnc(NC)nc32)CC1,GI50,SW-620 colon,3.22 µM
same,TGI,SW-620 colon,9.31 µM
same,GI50,UO-31 renal,3.72 µM
same,TGI,UO-31 renal,15.9 µM
same,GI50,HOP-62 NSCLC,3.06 µM
same,TGI,HOP-62 NSCLC,12.1 µM
same,GI50,SF-268 CNS,1.22 µM
same,TGI,SF-268 CNS,7.03 µM
same,GI50,UACC-62 melanoma,1.9 µM
same,TGI,UACC-62 melanoma,11.8 µM
same,GI50,M14 melanoma,2.11 µM
same,TGI,M14 melanoma,16.1 µM
same,GI50,RXF 393 renal,0.665 µM
same,TGI,RXF 393 renal,3.03 µM
same,GI50,MDA-MB-231 breast,3.94 µM
same,TGI,MDA-MB-231 breast,14.9 µM
same,GI50,UACC-257 melanoma,4.44 µM
same,TGI,UACC-257 melanoma,16 µM
same,GI50,U251 glioblastoma,3.72 µM
same,TGI,U251 glioblastoma,16 µM
same,GI50,SK-MEL-5 melanoma,2.35 µM
same,TGI,SK-MEL-5 melanoma,13.1 µM
same,GI50,T-47D breast,2.86 µM
same,TGI,T-47D breast,16.1 µM
same,GI50,KM12 colon,6.06 µM
same,TGI,KM12 colon,18.8 µM
